Measured values as given in the NIST ThermoML archive (doi:10.1021/je0601457).

Assay: xn = mol fraction of the nth substance listed

Cc1nccnc1C [2,3-dimethylpyrazine] + O=C=O
Fluid (supercritical or subcritical phases), Linear displacement technique
Settings | mass density [kg/m3]
294.15 K, 7140 kPa, x1 = 0.027 | 905
294.15 K, 9590 kPa, x1 = 0.027 | 934
294.15 K, 14100 kPa, x1 = 0.027 | 983
294.55 K, 7140 kPa, x1 = 0.049 | 1099
294.55 K, 7140 kPa, x1 = 0.184 | 947
294.55 K, 8520 kPa, x1 = 0.184 | 949
294.55 K, 10590 kPa, x1 = 0.049 | 1123
294.55 K, 12450 kPa, x1 = 0.184 | 951
294.55 K, 13830 kPa, x1 = 0.049 | 1142
294.75 K, 2240 kPa, x1 = 0.736 | 861
294.75 K, 3830 kPa, x1 = 0.736 | 864
294.75 K, 5690 kPa, x1 = 0.736 | 864
294.75 K, 6720 kPa, x1 = 0.033 | 836
294.75 K, 8450 kPa, x1 = 0.033 | 858
294.75 K, 13830 kPa, x1 = 0.033 | 911
294.85 K, 6660 kPa, x1 = 0.108 | 899
294.85 K, 7070 kPa, x1 = 0.565 | 958
294.85 K, 10070 kPa, x1 = 0.108 | 901
294.85 K, 10620 kPa, x1 = 0.565 | 961
294.85 K, 13620 kPa, x1 = 0.108 | 904
294.85 K, 15240 kPa, x1 = 0.565 | 964
294.85 K, 18660 kPa, x1 = 0.108 | 908
295.05 K, 7070 kPa, x1 = 0.157 | 995
295.05 K, 10310 kPa, x1 = 0.157 | 1004
295.05 K, 13480 kPa, x1 = 0.157 | 1014
295.25 K, 6140 kPa, x1 = 0.086 | 767
295.25 K, 6380 kPa, x1 = 0.057 | 871
295.25 K, 7410 kPa, x1 = 0.057 | 885
295.25 K, 7690 kPa, x1 = 0.01 | 785
295.25 K, 8380 kPa, x1 = 0.086 | 778
295.25 K, 10170 kPa, x1 = 0.057 | 911
295.25 K, 11100 kPa, x1 = 0.01 | 833
295.25 K, 12100 kPa, x1 = 0.086 | 799
295.25 K, 15790 kPa, x1 = 0.01 | 873
295.25 K, 16070 kPa, x1 = 0.086 | 817
296.25 K, 4410 kPa, x1 = 0.433 | 989
296.25 K, 7660 kPa, x1 = 0.433 | 997
296.25 K, 10720 kPa, x1 = 0.433 | 1002
301.75 K, 6620 kPa, x1 = 0.565 | 938
301.75 K, 9830 kPa, x1 = 0.565 | 941
301.75 K, 15790 kPa, x1 = 0.565 | 946
302.65 K, 7520 kPa, x1 = 0.049 | 902
302.65 K, 10030 kPa, x1 = 0.049 | 934
302.65 K, 13030 kPa, x1 = 0.049 | 962
302.65 K, 16660 kPa, x1 = 0.049 | 1000
303.25 K, 7410 kPa, x1 = 0.291 | 859
303.25 K, 9860 kPa, x1 = 0.291 | 860
303.25 K, 15450 kPa, x1 = 0.291 | 860
306.25 K, 7410 kPa, x1 = 0.027 | 750
306.25 K, 9900 kPa, x1 = 0.027 | 812
306.25 K, 13380 kPa, x1 = 0.027 | 864
308.95 K, 7070 kPa, x1 = 0.157 | 952
308.95 K, 9450 kPa, x1 = 0.157 | 964
308.95 K, 13480 kPa, x1 = 0.157 | 981
308.95 K, 17690 kPa, x1 = 0.157 | 996
310.85 K, 6970 kPa, x1 = 0.433 | 967
310.85 K, 12480 kPa, x1 = 0.433 | 975
310.85 K, 21340 kPa, x1 = 0.433 | 994
311.45 K, 7380 kPa, x1 = 0.184 | 912
311.45 K, 9210 kPa, x1 = 0.184 | 918
311.45 K, 12380 kPa, x1 = 0.184 | 925
311.45 K, 16720 kPa, x1 = 0.184 | 932
312.65 K, 10170 kPa, x1 = 0.033 | 763
312.65 K, 12660 kPa, x1 = 0.033 | 804
312.65 K, 15970 kPa, x1 = 0.033 | 851
312.75 K, 8520 kPa, x1 = 0.057 | 874
312.75 K, 9970 kPa, x1 = 0.057 | 905
312.75 K, 10450 kPa, x1 = 0.057 | 914
313.95 K, 10520 kPa, x1 = 0.108 | 879
313.95 K, 13660 kPa, x1 = 0.108 | 888
313.95 K, 17210 kPa, x1 = 0.108 | 896
314.25 K, 9830 kPa, x1 = 0.01 | 500
314.25 K, 11830 kPa, x1 = 0.01 | 769
314.25 K, 18590 kPa, x1 = 0.01 | 799
315.85 K, 9380 kPa, x1 = 0.086 | 702
315.85 K, 12310 kPa, x1 = 0.086 | 728
315.85 K, 16520 kPa, x1 = 0.086 | 752
315.85 K, 24210 kPa, x1 = 0.086 | 786
316.05 K, 7480 kPa, x1 = 0.291 | 857
316.05 K, 8660 kPa, x1 = 0.291 | 858
316.05 K, 11340 kPa, x1 = 0.291 | 858
316.25 K, 6170 kPa, x1 = 0.565 | 923
316.25 K, 10000 kPa, x1 = 0.565 | 926
316.25 K, 16380 kPa, x1 = 0.565 | 935
317.35 K, 5590 kPa, x1 = 0.736 | 859
317.35 K, 11590 kPa, x1 = 0.736 | 860
317.35 K, 16450 kPa, x1 = 0.736 | 862
318.75 K, 7690 kPa, x1 = 0.433 | 955
318.75 K, 16070 kPa, x1 = 0.433 | 969
318.75 K, 22930 kPa, x1 = 0.433 | 977
319.35 K, 10520 kPa, x1 = 0.049 | 834
319.35 K, 15340 kPa, x1 = 0.049 | 906
319.35 K, 18660 kPa, x1 = 0.049 | 946
321.05 K, 10210 kPa, x1 = 0.157 | 927
321.05 K, 12000 kPa, x1 = 0.157 | 937
321.05 K, 16280 kPa, x1 = 0.157 | 958
321.05 K, 18660 kPa, x1 = 0.157 | 970
322.35 K, 11790 kPa, x1 = 0.027 | 717
322.35 K, 13000 kPa, x1 = 0.027 | 688
322.35 K, 13410 kPa, x1 = 0.027 | 761
322.35 K, 15620 kPa, x1 = 0.027 | 757
322.35 K, 16310 kPa, x1 = 0.027 | 812
323.35 K, 10660 kPa, x1 = 0.057 | 815
323.35 K, 11970 kPa, x1 = 0.057 | 849
323.35 K, 16030 kPa, x1 = 0.057 | 904
324.95 K, 7830 kPa, x1 = 0.433 | 944
324.95 K, 13900 kPa, x1 = 0.433 | 955
324.95 K, 20660 kPa, x1 = 0.433 | 968
325.25 K, 6140 kPa, x1 = 0.736 | 859
325.25 K, 10720 kPa, x1 = 0.736 | 860
325.25 K, 18170 kPa, x1 = 0.736 | 861
325.65 K, 10520 kPa, x1 = 0.184 | 894
325.65 K, 12660 kPa, x1 = 0.184 | 903
325.65 K, 18030 kPa, x1 = 0.184 | 916
328.55 K, 10170 kPa, x1 = 0.291 | 857
328.55 K, 10660 kPa, x1 = 0.01 | 438
328.55 K, 10970 kPa, x1 = 0.01 | 552
328.55 K, 11970 kPa, x1 = 0.01 | 635
328.55 K, 12140 kPa, x1 = 0.291 | 858
328.55 K, 13000 kPa, x1 = 0.01 | 688

Liquid, linear displacement
Settings | mass density [kg/m3]
294.15 K, x1 = 0.027 | 868
294.55 K, x1 = 0.049 | 1077
294.55 K, x1 = 0.184 | 945
294.75 K, x1 = 0.033 | 802
294.75 K, x1 = 0.736 | 861
294.85 K, x1 = 0.108 | 896
294.85 K, x1 = 0.565 | 947
295.05 K, x1 = 0.157 | 982
295.25 K, x1 = 0.01 | 735
295.25 K, x1 = 0.057 | 832
295.25 K, x1 = 0.086 | 730
296.25 K, x1 = 0.433 | 985
301.75 K, x1 = 0.565 | 920
302.65 K, x1 = 0.049 | 876
303.25 K, x1 = 0.291 | 858
306.25 K, x1 = 0.027 | 738
308.95 K, x1 = 0.157 | 948
310.85 K, x1 = 0.433 | 962
311.45 K, x1 = 0.184 | 912
312.65 K, x1 = 0.033 | 694
312.75 K, x1 = 0.057 | 860
313.95 K, x1 = 0.108 | 864
314.25 K, x1 = 0.01 | 584
315.85 K, x1 = 0.086 | 687
316.05 K, x1 = 0.291 | 858
316.25 K, x1 = 0.565 | 920
317.35 K, x1 = 0.736 | 859
318.75 K, x1 = 0.433 | 951
319.35 K, x1 = 0.049 | 790
321.05 K, x1 = 0.157 | 912
322.35 K, x1 = 0.027 | 612
323.35 K, x1 = 0.057 | 784
324.95 K, x1 = 0.433 | 940
325.25 K, x1 = 0.736 | 857
325.65 K, x1 = 0.184 | 885
